Assay results from PubChem BioAssay AID2060906 (Molecular Pharmacology Branch, DTP, NCI, 2025).

Test system: 485176-168-R4-J1-PDC complex spheroid growth
Assay: Anticancer human tumor 485176-168-R4-J1-PDC patient-derived pancreatic adenocarcinoma cell line growth inhibition [RAS]
Conditions: for IC50: curve of first compound; for viability, T/C: stronger effect = lower value
In short: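 Tumour cells grown as complex spheroids with HUVEC endothelial cells and mesenchymal stem cells, treated with RAS pathway inhibitor combinations. Each agent spans half-log steps from near clinical Cmax, or 10 microM where Cmax is unknown.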

[1] = second compound 0.000949 µM, first compound 0.0316 µM
[2] = second compound 0.000949 µM, first compound 0.1 µM
[3] = second compound 0.000949 µM, first compound 0.316 µM
[4] = second compound 0.000949 µM, first compound 1 µM
[5] = second compound 0.000949 µM, first compound 3.16 µM
[6] = second compound 0.000949 µM, first compound 10 µM
[7] = second compound 0.003 µM, first compound 0.0316 µM
[8] = second compound 0.003 µM, first compound 0.1 µM
[9] = second compound 0.003 µM, first compound 0.316 µM
[10] = second compound 0.003 µM, first compound 1 µM
[11] = second compound 0.003 µM, first compound 3.16 µM
[12] = second compound 0.003 µM, first compound 10 µM
[13] = second compound 0.00949 µM, first compound 0.0316 µM
[14] = second compound 0.00949 µM, first compound 0.1 µM
[15] = second compound 0.00949 µM, first compound 0.316 µM
[16] = second compound 0.00949 µM, first compound 1 µM
[17] = second compound 0.00949 µM, first compound 3.16 µM
[18] = second compound 0.00949 µM, first compound 10 µM
[19] = second compound 0.03 µM, first compound 0.0316 µM
[20] = second compound 0.03 µM, first compound 0.1 µM
[21] = second compound 0.03 µM, first compound 0.316 µM
[22] = second compound 0.03 µM, first compound 1 µM
[23] = second compound 0.03 µM, first compound 3.16 µM
[24] = second compound 0.03 µM, first compound 10 µM
[25] = second compound 0.0949 µM, first compound 0.0316 µM
[26] = second compound 0.0949 µM, first compound 0.1 µM
[27] = second compound 0.0949 µM, first compound 0.316 µM
[28] = second compound 0.0949 µM, first compound 1 µM
[29] = second compound 0.0949 µM, first compound 3.16 µM
[30] = second compound 0.0949 µM, first compound 10 µM
[31] = second compound 0.3 µM, first compound 0.0316 µM
[32] = second compound 0.3 µM, first compound 0.1 µM
[33] = second compound 0.3 µM, first compound 0.316 µM
[34] = second compound 0.3 µM, first compound 1 µM
[35] = second compound 0.3 µM, first compound 3.16 µM
[36] = second compound 0.3 µM, first compound 10 µM
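Also: spheroids exposed to compounds for seven days before readout.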
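For viability, T/C in this document: luminescence viability expressed relative to DMSO vehicle wells set as 100%.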

For `CC1(O)CCCC1n1c(=O)c(C(F)F)cc2cnc(NC3CCN(S(C)(=O)=O)CC3)nc21` (stereo not drawn) + CCn1c(-c2cccnc2C(C)OC)c2c3cc(ccc31)N1CCOC(CC(NC(=O)C(C(C)C)N(C)C(=O)C3(F)CCN(C(=O)C#CC(C)(C)N(C)C)CC3)C(=O)N3CCCC(N3)C(=O)OCC(C)(C)C2)C1, the IC50 (second compound 0.000949 µM) was 3.41 µM, the IC50 (second compound 0.003 µM) was 3.17 µM and the IC50 (second compound 0.00949 µM) was 3.39 µM. It also gave an IC50 (second compound 0.03 µM) of 3.31 µM, an IC50 (second compound 0.0949 µM) of 3.32 µM and an IC50 (second compound 0.3 µM) of 1.68 µM. The viability, T/C [1] was 114%, the viability, T/C [2] was 75% and the viability, T/C [3] was 70.6%. It also gave a viability, T/C [4] of 78.2%, a viability, T/C [5] of 60.8% and a viability, T/C [6] of 4.58%. The viability, T/C [7] was 103%, the viability, T/C [8] was 92.7% and the viability, T/C [9] was 76.6%. The viability, T/C [10] was 72.8%, the viability, T/C [11] was 57% and the viability, T/C [12] was 3.48%. The viability, T/C [13] was 90.4%, the viability, T/C [14] was 74.7% and the viability, T/C [15] was 60.6%. It also gave a viability, T/C [16] of 69.8%, a viability, T/C [17] of 57% and a viability, T/C [18] of 3.15%. The viability, T/C [19] was 110%, the viability, T/C [20] was 78.7% and the viability, T/C [21] was 87.2%. The viability, T/C [22] was 65.9%, the viability, T/C [23] was 63.5% and the viability, T/C [24] was 2.51%. For the same compound, the viability, T/C [25] was 89.2%, the viability, T/C [26] was 76.2% and the viability, T/C [27] was 69.6%. The viability, T/C [28] was 68.1%, the viability, T/C [29] was 56.1% and the viability, T/C [30] was 2.02%. The viability, T/C [31] was 78.7%, the viability, T/C [32] was 70.5% and the viability, T/C [33] was 58.1%. It also gave a viability, T/C [34] of 54.6%, a viability, T/C [35] of 47.8% and a viability, T/C [36] of 3.3%.
In the case of `CCC(CC)c1cc(NC2CCC(N)C2)n2nccc2n1` (stereo not drawn) + CCn1c(-c2cccnc2C(C)OC)c2c3cc(ccc31)N1CCOC(CC(NC(=O)C(C(C)C)N(C)C(=O)C3(F)CCN(C(=O)C#CC(C)(C)N(C)C)CC3)C(=O)N3CCCC(N3)C(=O)OCC(C)(C)C2)C1, the IC50 (second compound 0.000949 µM) is reported as 1.26 µM, the IC50 (second compound 0.003 µM) is reported as 1.44 µM and the IC50 (second compound 0.00949 µM) is reported as 1.27 µM. For the same compound, the IC50 (second compound 0.03 µM) was 1.08 µM, the IC50 (second compound 0.0949 µM) was 1.01 µM and the IC50 (second compound 0.3 µM) was 0.521 µM. For the same compound, the viability, T/C [1] was 94.6%, the viability, T/C [2] was 117% and the viability, T/C [3] was 86%. For the same compound, the viability, T/C [4] was 64.1%, the viability, T/C [5] was 2.09% and the viability, T/C [6] was 0.42%. For the same compound, the viability, T/C [7] was 105%, the viability, T/C [8] was 104% and the viability, T/C [9] was 100%. The viability, T/C [10] was 72.1%, the viability, T/C [11] was 2.19% and the viability, T/C [12] was 0.46%. It also gave a viability, T/C [13] of 88.4%, a viability, T/C [14] of 79.7% and a viability, T/C [15] of 98.8%. It also gave a viability, T/C [16] of 62.6%, a viability, T/C [17] of 2.5% and a viability, T/C [18] of 0.59%. It also gave a viability, T/C [19] of 96%, a viability, T/C [20] of 105% and a viability, T/C [21] of 95.9%. For the same compound, the viability, T/C [22] was 53.7%, the viability, T/C [23] was 2.5% and the viability, T/C [24] was 0.41%. The viability, T/C [25] was 87%, the viability, T/C [26] was 77.3% and the viability, T/C [27] was 94.2%. The viability, T/C [28] was 50.3%, the viability, T/C [29] was 2.64% and the viability, T/C [30] was 0.46%. It also gave a viability, T/C [31] of 82.9%, a viability, T/C [32] of 72.8% and a viability, T/C [33] of 64.5%. For the same compound, the viability, T/C [34] was 32.7%, the viability, T/C [35] was 2.76% and the viability, T/C [36] was 0.53%.
In the case of `Cc1nc(N2CCC3(CC2)COC(C)C3N)c(CO)nc1Sc1ccnc(N)c1Cl` (stereo not drawn) + CCn1c(-c2cccnc2C(C)OC)c2c3cc(ccc31)N1CCOC(CC(NC(=O)C(C(C)C)N(C)C(=O)C3(F)CCN(C(=O)C#CC(C)(C)N(C)C)CC3)C(=O)N3CCCC(N3)C(=O)OCC(C)(C)C2)C1, the IC50 (second compound 0.000949 µM) is reported as > 10 µM, the IC50 (second compound 0.003 µM) is reported as > 10 µM and the IC50 (second compound 0.00949 µM) is reported as > 10 µM. The IC50 (second compound 0.03 µM) was > 10 µM, the IC50 (second compound 0.0949 µM) was > 10 µM and the IC50 (second compound 0.3 µM) was > 10 µM. For the same compound, the viability, T/C [1] was 96.6%, the viability, T/C [2] was 87.4% and the viability, T/C [3] was 84%. It also gave a viability, T/C [4] of 85.1%, a viability, T/C [5] of 89.1% and a viability, T/C [6] of 79.4%. For the same compound, the viability, T/C [7] was 93.1%, the viability, T/C [8] was 103% and the viability, T/C [9] was 81%. For the same compound, the viability, T/C [10] was 68.9%, the viability, T/C [11] was 82% and the viability, T/C [12] was 71%. It also gave a viability, T/C [13] of 110%, a viability, T/C [14] of 92.9% and a viability, T/C [15] of 94.7%. It also gave a viability, T/C [16] of 77.6%, a viability, T/C [17] of 87.6% and a viability, T/C [18] of 64.3%. The viability, T/C [19] was 93.3%, the viability, T/C [20] was 91.2% and the viability, T/C [21] was 92.2%. The viability, T/C [22] was 69.2%, the viability, T/C [23] was 74.8% and the viability, T/C [24] was 73.9%. The viability, T/C [25] was 97.3%, the viability, T/C [26] was 85.4% and the viability, T/C [27] was 72.3%. For the same compound, the viability, T/C [28] was 87.3%, the viability, T/C [29] was 70.8% and the viability, T/C [30] was 85.5%. It also gave a viability, T/C [31] of 71.7%, a viability, T/C [32] of 65.4% and a viability, T/C [33] of 60.2%. For the same compound, the viability, T/C [34] was 66%, the viability, T/C [35] was 70.8% and the viability, T/C [36] was 66.2%.
`NC1c2ccccc2OC12CCN(c1cnc3c(N4CCCc5ncccc54)n[nH]c3n1)CC2` (stereo not drawn) + CCn1c(-c2cccnc2C(C)OC)c2c3cc(ccc31)N1CCOC(CC(NC(=O)C(C(C)C)N(C)C(=O)C3(F)CCN(C(=O)C#CC(C)(C)N(C)C)CC3)C(=O)N3CCCC(N3)C(=O)OCC(C)(C)C2)C1 was tested, and the IC50 (second compound 0.000949 µM) was > 10 µM, the IC50 (second compound 0.003 µM) was > 10 µM and the IC50 (second compound 0.00949 µM) was > 10 µM. The IC50 (second compound 0.03 µM) was > 10 µM, the IC50 (second compound 0.0949 µM) was > 10 µM and the IC50 (second compound 0.3 µM) was > 10 µM. For the same compound, the viability, T/C [1] was 91.4%, the viability, T/C [2] was 78.7% and the viability, T/C [3] was 94.2%. For the same compound, the viability, T/C [4] was 85.9%, the viability, T/C [5] was 67.8% and the viability, T/C [6] was 71.6%. For the same compound, the viability, T/C [7] was 74.5%, the viability, T/C [8] was 89.4% and the viability, T/C [9] was 84.1%. The viability, T/C [10] was 85.5%, the viability, T/C [11] was 85.7% and the viability, T/C [12] was 70.2%. The viability, T/C [13] was 85%, the viability, T/C [14] was 75.6% and the viability, T/C [15] was 81.9%. The viability, T/C [16] was 86.8%, the viability, T/C [17] was 89.9% and the viability, T/C [18] was 63.6%. For the same compound, the viability, T/C [19] was 88.8%, the viability, T/C [20] was 86.8% and the viability, T/C [21] was 80.2%. For the same compound, the viability, T/C [22] was 71.3%, the viability, T/C [23] was 93.9% and the viability, T/C [24] was 61.1%. The viability, T/C [25] was 75%, the viability, T/C [26] was 71.8% and the viability, T/C [27] was 72.7%. For the same compound, the viability, T/C [28] was 65.9%, the viability, T/C [29] was 82.2% and the viability, T/C [30] was 61.7%. The viability, T/C [31] was 59.9%, the viability, T/C [32] was 76.7% and the viability, T/C [33] was 57%. For the same compound, the viability, T/C [34] was 70.2%, the viability, T/C [35] was 62.9% and the viability, T/C [36] was 61.7%.
